# In paper PMC7300217, “Surfactin Like Broad Spectrum Antimicrobial Lipopeptide Co-produced With Sublancin From Bacillus subtilis Strain A52: Dual Reservoir of Bioactives” (Frontiers in Microbiology, 2020):
# Key:
# C. albicans MTCC 227 = test: MIC, microtiter plate dilution assay; type: cell-based, Candida albicans; details: Candida albicans, MTCC227; 5 × 10^5 CFU/ml, 37°C, OD600 after 48 h, triplicate
# Experimental: (§1) The antimicrobial activity was tested by well diffusion assay as mentioned earlier ([Singh et al., 2014]). Strain A52 was grown for 24 h in 500 ml of nutrient broth (NB, Hi-media, India) using 1000 ml flask and subsequently cells were removed by centrifugation (10,000 rpm for 15 min at 4°C). Supernatant was filtered through 0.22 μm filter (Millipore, United States) to obtain cell-free fermented broth (CFB) that was used for antimicrobial assay (50 μl) against various indicator strains and the activity was measured as diameter of inhibition zone. Test strains used were Staphylococcus aureus (MTCC 1430), Bacillus subtilis (MTCC 121), B. firmus (MTCC 488), B. licheniformis (MTCC 429), B. thuringiensis (MTCC 1953), Escherichia coli (MTCC 1610), Micrococcus luteus (MTCC 106), Steptococcus pyrogens (MTCC 1928), S. anginosus (MTCC 1929), S. oralis (MTCC 2696), S. mutans (MTCC 497), Candida albicans (MTCC 1637), C. albicans (MTCC 183), C. albicans (MTCC 227), C. tropicalis (MTCC 184), C. glabrata (MTCC 3019), C. haemulonii (MTCC 2766), and C. inconsplicue (MTCC 1074). The phytopathogenic fungi employed in this study were Alternaria brassicicola (MTCC 2102), Colletotrichum acutatum (MTCC 1037), and Fusarium moniliforme (MTCC 158). Clinical isolates of Candida were provided by National Culture Collection of Pathogenic Fungi (NCCPF), PGIMER, Chandigarh, India.
# (§2) The minimum inhibitory concentration (MIC) of HPLC purified peptides was evaluated by using microtiter plate dilution assay. The peptide concentration was estimated using BCA protein assay (Thermo Fisher Scientific, United States) method as described by manufacturer. Actively growing test strains (5 × 10^5 CFU/ml) were inoculated in a 96-well plate with different concentrations of the peptides and plates were incubated for 24–48 h at 37°C (final volume in each well is 200 μl). OD was measured at 600 nm after 24 and 48 h for bacteria and yeast, respectively, using ELISA microplate reader (Thermo, United States). MIC against phytopathogenic fungi was determined using 96-well microtiter plate assay ([Kaur et al., 2016]). In 96-well microplates, 100 μl of fungal spore suspension (1 × 10^5 spores/ml) prepared in potato dextrose broth (PDB, Hi-media, India) was mixed with100 μl of fresh PDB containing different concentrations of lipopeptide. Control well contained 100 μl of fungal spore suspension and 100 μl of only medium. The microplates were incubated at 25°C and readings were recorded at 600 nm after 48 h. The lowest concentration showing no growth was considered as MIC. Each test was done in triplicate and optical density (OD600) of peptide treated wells were compared with uninoculated wells (blank medium control).
# C. albicans MTCC 183 = test: MIC, microtiter plate dilution assay; type: cell-based, Candida albicans; details: Candida albicans, MTCC183; 5 × 10^5 CFU/ml, 37°C, OD600 after 48 h, triplicate
# Experimental: as §1, §2
# C. albicans MTCC 1637 = test: MIC, microtiter plate dilution assay; type: cell-based, Candida albicans; details: Candida albicans, MTCC1637; 5 × 10^5 CFU/ml, 37°C, OD600 after 48 h, triplicate
# Experimental: as §1, §2
# [1] = tested on: C. albicans 400054 (clinical isolate); test: MIC, microtiter plate dilution assay; type: cell-based, Candida albicans; details: Candida albicans, 5 × 10^5 CFU/ml, 37°C, OD600 after 48 h, triplicate
# Experimental: as §1, §2
# F. moniliforme MTCC 158 = test: MIC against phytopathogenic fungi, 96-well microtiter plate assay; type: cell-based, Fusarium moniliforme; details: Fusarium verticillioides, MTCC158; 1 × 10^5 spores/ml in PDB, 25°C, OD600 after 48 h, triplicate
# Experimental: as §1
# The minimum inhibitory concentration (MIC) of HPLC purified peptides was evaluated by using microtiter plate dilution assay. The peptide concentration was estimated using BCA protein assay (Thermo Fisher Scientific, United States) method as described by manufacturer. […] OD was measured at 600 nm after 24 and 48 h for bacteria and yeast, respectively, using ELISA microplate reader (Thermo, United States). MIC against phytopathogenic fungi was determined using 96-well microtiter plate assay ([Kaur et al., 2016]). […] The microplates were incubated at 25°C and readings were recorded at 600 nm after 48 h. […]
# [2] = tested on: A. brassicicola MTCC 2102; test: as above; type: cell-based, Alternaria brassicicola; details: Alternaria brassicicola, MTCC2102; 1 × 10^5 spores/ml in PDB, 25°C, OD600 after 48 h, triplicate
# Experimental: (§3) The antimicrobial activity was tested by well diffusion assay as mentioned earlier ([Singh et al., 2014]). Strain A52 was grown for 24 h in 500 ml of nutrient broth (NB, Hi-media, India) using 1000 ml flask and subsequently cells were removed by centrifugation (10,000 rpm for 15 min at 4°C). Supernatant was filtered through 0.22 μm filter (Millipore, United States) to obtain cell-free fermented broth (CFB) that was used for antimicrobial assay (50 μl) against various indicator strains and the activity was measured as diameter of inhibition zone. […]
# (§4) The minimum inhibitory concentration (MIC) of HPLC purified peptides was evaluated by using microtiter plate dilution assay. […] OD was measured at 600 nm after 24 and 48 h for bacteria and yeast, respectively, using ELISA microplate reader (Thermo, United States). MIC against phytopathogenic fungi was determined using 96-well microtiter plate assay ([Kaur et al., 2016]). […] The microplates were incubated at 25°C and readings were recorded at 600 nm after 48 h. […]
# [3] = tested on: C. rugos 470141 (clinical isolate); test: MIC, microtiter plate dilution assay; type: cell-based; details: 5 × 10^5 CFU/ml, 37°C, OD600 after 48 h, triplicate
# Experimental: as §1, §2
# [4] = tested on: C. krusei 440009 (clinical isolate); test: MIC, microtiter plate dilution assay; type: cell-based; details: Pichia kudriavzevii, 5 × 10^5 CFU/ml, 37°C, OD600 after 48 h, triplicate
# Experimental: as §1, §2
# [5] = tested on: C. haemulonii 470125 (clinical isolate); test: MIC, microtiter plate dilution assay; type: cell-based; details: Candidozyma haemuli, 5 × 10^5 CFU/ml, 37°C, OD600 after 48 h, triplicate
# Experimental: as §1, §2
# C. tropicalis MTCC 184 = test: MIC, microtiter plate dilution assay; type: cell-based; details: Candida tropicalis, MTCC184; 5 × 10^5 CFU/ml, 37°C, OD600 after 48 h, triplicate
# Experimental: as §1, §2
# C. haemulonii MTCC 2766 = test: MIC, microtiter plate dilution assay; type: cell-based; details: Candidozyma haemuli, MTCC2766; 5 × 10^5 CFU/ml, 37°C, OD600 after 48 h, triplicate
# Experimental: as §1, §2
# [6] = tested on: C. glabrata SKSS ID (clinical isolate); test: MIC, microtiter plate dilution assay; type: cell-based; details: Nakaseomyces glabratus, 5 × 10^5 CFU/ml, 37°C, OD600 after 48 h, triplicate
# Experimental: as §1, §2
# [7] = tested on: C. aurius 470126 (clinical isolate); test: MIC, microtiter plate dilution assay; type: cell-based; details: 5 × 10^5 CFU/ml, 37°C, OD600 after 48 h, triplicate
# Experimental: as §1, §2
# [8] = tested on: C. tropicalis 420024 (clinical isolate); test: MIC, microtiter plate dilution assay; type: cell-based; details: Candida tropicalis, 5 × 10^5 CFU/ml, 37°C, OD600 after 48 h, triplicate
# Experimental: as §1, §2
# [9] = tested on: C. kefyr 410004 (clinical isolate); test: MIC, microtiter plate dilution assay; type: cell-based; details: Kluyveromyces marxianus, 5 × 10^5 CFU/ml, 37°C, OD600 after 48 h, triplicate
# Experimental: as §1, §2
# [10] = tested on: C. inconsplicue MTCC 1074; test: MIC, microtiter plate dilution assay; type: cell-based; details: 5 × 10^5 CFU/ml, 37°C, OD600 after 48 h, triplicate
# Experimental: as §1, §2
# [11] = tested on: C. parasilosis 450030 (clinical isolate); test: MIC, microtiter plate dilution assay; type: cell-based; details: 5 × 10^5 CFU/ml, 37°C, OD600 after 48 h, triplicate
# Experimental: as §1, §2
# C. glabrata MTCC 3019 = test: MIC, microtiter plate dilution assay; type: cell-based; details: Nakaseomyces glabratus, MTCC3019; 5 × 10^5 CFU/ml, 37°C, OD600 after 48 h, triplicate
# Experimental: as §1, §2
# B. subtilis MTCC 121 = test: MIC, microtiter plate dilution assay; type: cell-based, Bacillus subtilis; details: Bacillus subtilis, MTCC121; 5 × 10^5 CFU/ml, 37°C, OD600 after 24 h, triplicate
# Experimental: as §3, §4
# M. luteus MTCC 106 = test: MIC, microtiter plate dilution assay; type: cell-based, Micrococcus luteus; details: Micrococcus luteus, MTCC106; 5 × 10^5 CFU/ml, 37°C, OD600 after 24 h, triplicate
# Experimental: as §3, §4
# E. coli MTCC 1610 = test: MIC, microtiter plate dilution assay; type: cell-based, Escherichia coli; details: Escherichia coli, MTCC1610; 5 × 10^5 CFU/ml, 37°C, OD600 after 24 h, triplicate
# Experimental: as §3, §4
# S. aureus MTCC 1430 = test: MIC, microtiter plate dilution assay; type: cell-based, Staphylococcus aureus; details: Staphylococcus aureus, MTCC1430; 5 × 10^5 CFU/ml, 37°C, OD600 after 24 h, triplicate
# Experimental: as §3, §4
# S. pyogenes MTCC 1928 = test: MIC, microtiter plate dilution assay; type: cell-based; details: Streptococcus pyogenes, MTCC1928; 5 × 10^5 CFU/ml, 37°C, OD600 after 24 h, triplicate
# Experimental: as §1, §2
# S. oralis MTCC 2696 = test: MIC, microtiter plate dilution assay; type: cell-based; details: Streptococcus oralis, MTCC2696; 5 × 10^5 CFU/ml, 37°C, OD600 after 24 h, triplicate
# Experimental: as §1, §2
# S. anginosus MTCC1929 = test: MIC, microtiter plate dilution assay; type: cell-based; details: Streptococcus anginosus, MTCC1929; 5 × 10^5 CFU/ml, 37°C, OD600 after 24 h, triplicate
# Experimental: as §1, §2
# S. mutans MTCC 497 = test: MIC, microtiter plate dilution assay; type: cell-based; details: Streptococcus mutans, MTCC497; 5 × 10^5 CFU/ml, 37°C, OD600 after 24 h, triplicate
# Experimental: as §1, §2
# B. coagulans MTCC 492 = test: MIC, microtiter plate dilution assay; type: cell-based; details: Heyndrickxia coagulans, MTCC492; 5 × 10^5 CFU/ml, 37°C, OD600 after 24 h, triplicate
# Experimental: as §2
# B. cereus MTCC 430 = test: MIC, microtiter plate dilution assay; type: cell-based; details: Bacillus cereus, MTCC430; 5 × 10^5 CFU/ml, 37°C, OD600 after 24 h, triplicate
# Experimental: as §2
smiles,measurement,setting,value
"C[C@@H]1[C@H](O)[C@@H](C)/C=C/C=C/C=C/C=C/C=C/C=C/C=C/[C@H](O[C@@H]2O[C@H](C)[C@@H](O)[C@H](N)[C@@H]2O)C[C@@H]2O[C@](O)(C[C@@H](O)C[C@@H](O)[C@H](O)CC[C@@H](O)C[C@@H](O)CC(=O)O[C@H]1C)C[C@H](O)[C@H]2C(=O)O [Amphotericin B, reference compound]",MIC,C. albicans MTCC 227,5 µg/mL
same,MIC,C. albicans MTCC 183,5 µg/mL
same,MIC,C. albicans MTCC 1637,5 µg/mL
same,MIC,[1],5 µg/mL
same,MIC,F. moniliforme MTCC 158,50 µg/mL
same,MIC,[2],50 µg/mL
same,MIC,[3],5 µg/mL
same,MIC,[4],5 µg/mL
same,MIC,[5],50 µg/mL
same,MIC,C. tropicalis MTCC 184,35 µg/mL
same,MIC,C. haemulonii MTCC 2766,100 µg/mL
same,MIC,[6],100 µg/mL
same,MIC,[7],5 µg/mL
same,MIC,[8],50 µg/mL
same,MIC,[9],50 µg/mL
same,MIC,[10],10 µg/mL
same,MIC,[11],50 µg/mL
same,MIC,C. glabrata MTCC 3019,25 µg/mL
"CC1(C)S[C@@H]2[C@H](NC(=O)[C@H](N)c3ccccc3)C(=O)N2[C@H]1C(=O)O [Ampicillin, reference compound]",MIC,B. subtilis MTCC 121,0.5 µg/mL
same,MIC,M. luteus MTCC 106,0.2 µg/mL
same,MIC,E. coli MTCC 1610,1 µg/mL
same,MIC,S. aureus MTCC 1430,0.25 µg/mL
same,MIC,S. pyogenes MTCC 1928,0.03 µg/mL
same,MIC,S. oralis MTCC 2696,0.4 µg/mL
same,MIC,S. anginosus MTCC1929,0.25 µg/mL
same,MIC,S. mutans MTCC 497,0.4 µg/mL
same,MIC,B. coagulans MTCC 492,0.5 µg/mL
same,MIC,B. cereus MTCC 430,0.5 µg/mL
